Measured values published in US9707178B2, “Pharmaceutical composition” (Lek Pharmaceuticals, d.d., priority 2006, dated 2017).

Legend:
[1] = Stability of bulk olmesartan medoxomil in solution at different pH; type: physicochemical
Experimental: The main degradation product is olmesartan acid. […] In a solution at pH=7 the amount of formed olmesartan acid increases by 0.5% in 24 hours, while in 1M HCl the amount increases by approximately 6%. The amounts of individual and total impurities are measured in area % and determined by HPLC using the following procedure: a sample solution was prepared by diluting quantity of pulverized tablet equivalent to 25 mg of olmesartan medoxomil in 50 ml volumetric flask to volume with diluent (Eluent A+Eluent B=50%/50%). Column Waters Xbridge C18, 150×4.6 mm, 3.5 μm was used and eluted by Eluent A (0.025 M KH2PO4 adjusted to pH=2.5 with 50% H3PO4) and Eluent B (acetonitrile) with following gradient: A:B=100:0, from 15 to 30 minutes A:B=70:30, after 30 min A.B=0:100. Flow rate was […], Injection volume was 20 μl, column temperature was 30° C., detection wavelength at 225 nm.

[2] = pH of excipient measured by a glass electrode, 1 g in 100 g of water at room temperature; type: physicochemical; details: aqueous solution or suspension
Source text: In general we observed a best stabilization where each of the constituents being incorporated into a composition has a pH less than 9, preferably less than 8; but can have pH above 5. […] We have concluded that the excipients, being in contact with olmesartan medoxomil, being incorporated into a composition should preferably have a pH less that 8 if measured by a glass electrode in an aqueous solution or suspension containing 1 g of said excipient in 100 g of water at room temperature. Thus the pH of excipents uses in examples is as follows; lactose: about 5.2, L-HPC: about 6.7, MCC: about 6.7, stearic acid: about 5.4, Mg stearate: about 9.5, coating suspension (Example 3): about 6.6.

| Hydrolysis at basic conditions ([1]; basic conditions) | pH range in which most stable ([1]; bulk) | Increase of amount of formed olmesartan acid ([1]; in 1M HCl) | Increase of amount of formed olmesartan acid ([1]; solution at pH=7, 24 hours) | pH of excipient [2] | Structure (SMILES) |
| --- | --- | --- | --- | --- | --- |
| almost completely hydrolyzes | 3-5 | approximately 6% | 0.5% |  | CCCc1nc(C(C)(C)O)c(C(=O)OCc2oc(=O)oc2C)n1Cc1ccc(-c2ccccc2-c2nnn[nH]2)cc1 [olmesartan medoxomil, 4-(1-hydroxy-1-methylethyl)-2 propyl-1-[[2′-(1H-tetrazol-5-yl) [1,1′-biphenyl]-4-yl]methyl]-1H-imidazole-5-carboxylic acid (5-methyl-2-oxo-1,3-dioxol-4-yl)methyl ester] |
|  |  |  |  | about 5.2 | OC[C@H]1O[C@@H](O[C@H]2[C@H](O)[C@@H](O)C(O)O[C@@H]2CO)[C@H](O)[C@@H](O)[C@H]1O (stereo partly shown) [lactose] |
|  |  |  |  | about 9.5 | CCCCCCCCCCCCCCCCCC(=O)[O-].CCCCCCCCCCCCCCCCCC(=O)[O-].[Mg+2] [Mg stearate] |
|  |  |  |  | about 5.4 | CCCCCCCCCCCCCCCCCC(=O)O [stearic acid] |
